Laboratory results taken from patent US20220194938A1, “NOVEL COMPOUNDS AND PHARMACEUTICAL COMPOSITIONS THEREOF FOR THE TREATMENT OF INFLAMMATORY DISORDERS” (GALAPAGOS NV, priority 2019, published 2022).
Like-named read-outs stand apart in the source and are kept apart here.

Assays:
hERG channel = target: T1, hERG channel (Homo sapiens, UniProt Q12809); assay: hERG channel test - manual patch clamp assay; format: cell-based; settings: HEK293 cells stably transfected with hERG, tail current
T1 construct: host or cells: HEK293
Method: 4.7 hERG Channel Test—Manual Patch Clamp Assay
The aim of this assay is to determine the in-vitro effects of a test compound on hERG current ([…]) expressed in Human Embryonic Kidney (HEK) cells (evaluation of the blocking profile of test substance on the IKr-like potassium current mediated by hERG channel stably transfected in a human cell line), which is linked to cardiac safety.
The test substance is dissolved in pure dimethylsulfoxide (DMSO) by cold stirring to give a stock solution concentrated 333-fold as compared with the highest concentration to be tested. This stock solution is used to prepare the other stock solutions in DMSO. Each stock solution is used to prepare the solutions containing the final concentrations tested by dilution in extracellular solution (0.1, 1, 10 and 100 μM). Final concentration of DMSO should not not exceed 0.3%.
All formulations are prepared in glass containers.
If a slight opalescence persists at the highest concentration, a 50 μM (instead of 100 μM) concentration is tested.
DMSO diluted in extracellular solution (at the different concentrations used in the final test substance solutions) is used as vehicle.
The extracellular solution is constituted as follows (mM): K-gluconate: 4 mM/Na-gluconate: 145 mM/Mg-gluconate: 2 mM/Ca-gluconate: 3.5 mM/HEPES: 5 mM/glucose: 5 mM/mannitol: 20 mM. The pH is adjusted with NaOH to 7.40±0.05.
Human embryonic kidney (HEK293) cells are stably transfected with the hERG clone (Creacell) and are maintained at 37° C. in a 5% CO2/95% air incubator. Cells used for the study are transferred to an experimental chamber of approximately 2 mL which is maintained at a temperature of 35±0.5° C. by a thermoelectric device (Harvard Apparatus: Type TC-344B) and mounted on the platform of an inverted microscope (Olympus: Type IX-51 or Leica DMI3000 B). Cells are continuously superfused with Tyrode's solution constituted as follows (mM): NaCl: 145/KCl: 4/HEPES: 5/glucose: 5/CaCl2:1/MgCl2: 1.
Ionic currents from hERG-transfected cells are measured using the whole cell configuration of the patch clamp technique. Glass pipettes are pulled from borosilicate glass by a vertical puller (Sutter Instruments: Type P30). Pipette tip resistance is approximately 1.5 to 3.5 MΩ when filled with internal solution constituted as follows (mM): K-gluconate: 145/Mg-gluconate: 1/EGTA: 2/HEPES:5/K2ATP: 2.
The pipettes are connected to the input stage of a patch-clamp amplifier (Axon Instruments: Multiclamp 700B-1). Stimulation, data recording and analysis are performed using specialized Axon Instruments software (pClamp 9.2.0. or pClamp 10.3.0.2).
After rupture of the cell membrane (entering whole-cell mode), cells are stimulated every 10 seconds using the following protocol: 500 ms pulse to +10 mV from a holding potential of −80 mV followed by a 500 ms pulse to −40 mV during which tail current is measured.
Once the current under control conditions is stable, recordings are taken before (control) and after addition of the test substance. The effect of the test substance on tail current is monitored continuously until steady-state is reached. The peak tail current amplitude is averaged for 3 stimuli.
The following parameters are measured: • Cell capacitance (pF). • Peak tail current amplitude (pA).
Peak tail current measurements are normalized using the cell capacitance as an index of cell surface.
The cells will be considered as valid if cell capacitance <80 pF, access resistance <20 MΩ and holding current >−200 pA.
Results are expressed as absolute values and as percentage change from control (percentage of tail current inhibition).
The test substance is studied at 4 ascending concentrations on 3 hERG-transfected cells.
The concentration of test substance inducing 50% of inhibition (IC50) of tail current is determined, if possible, from each individual concentration-response curve. The equation is of the following form: […]

THP-1-Lucia NFκB cells = assay: NFκB-reporter assay in THP1-Lucia NFκB cells (LPS, IL-1β, TNFα trigger); format: cell-based; settings: 24 h
Description: This assay was used to evaluate the IRAK4 selectivity and potency of the compounds of the invention upon IRAK4 dependent (LPS and IL-1β) and independent triggering (TNFα), in a THP1-Lucia NFκB reporter assay.
THP-1-Lucia NFκB cells (Invivogen—5, rue Jean Rodier 31400 Toulouse France—cat #thp1-nfkb) were cultivated as recommended by the supplier using split cycles each cycle comprising a succession of thawing/expansion/seeding. The data reported were generated using cells having between 3 to 9 cycles. On the day of the experiment THP-1-Lucia NFκB cells were counted and seeded at a density of 1,000,000 cells/mL in culture medium (RPMI 1640 (Gibco, Cat #52400-025)+10% FBS (Sigma, Cat #F7524-500ML)+1% P/S (Gibco, Cat #15140-122)) by pipetting 54 μL/well in a 384 well plate. Thereafter, 6 μL of a 10× trigger solution was added to all wells, at final concentrations of 2.5, 10 and 3 ng/mL for respectively LPS, TNFα and IL-1β, except for ‘no trigger wells’ where 6 μL culture medium only was added.
After trigger addition, compounds were added with a digital compound dispenser, in an 8-points concentration range, using 3-fold dilution steps and normalizing the final DMSO concentration to 0.2% DMSO in all wells.
After 24 h incubation at 37° C., 5% CO2, 40 μL of supernatant was collected per well and transferred to a new 384 well plate that was then stored at −20° C. until further use.
For the readout, supernatant samples were thawed on ice and 5 μL sample was transferred from each well to a new 384-well plate. 20 μL of Quanti-Luc solution (Quanti-Luc powder (Invivogen, Cat #rep-glc1) dissolved in 25 mL sterile water as indicated by the manufacturer) was added to each well after which luminescence was immediately measured on an Envision instrument.
To measure the inhibition of LPS/TNFα/IL-1β-induced NFκB-reporter activity, percentage inhibition (PIN) values were calculated for all concentrations tested, compared to controls. […]

T1 sequence (Q12809 whole entry): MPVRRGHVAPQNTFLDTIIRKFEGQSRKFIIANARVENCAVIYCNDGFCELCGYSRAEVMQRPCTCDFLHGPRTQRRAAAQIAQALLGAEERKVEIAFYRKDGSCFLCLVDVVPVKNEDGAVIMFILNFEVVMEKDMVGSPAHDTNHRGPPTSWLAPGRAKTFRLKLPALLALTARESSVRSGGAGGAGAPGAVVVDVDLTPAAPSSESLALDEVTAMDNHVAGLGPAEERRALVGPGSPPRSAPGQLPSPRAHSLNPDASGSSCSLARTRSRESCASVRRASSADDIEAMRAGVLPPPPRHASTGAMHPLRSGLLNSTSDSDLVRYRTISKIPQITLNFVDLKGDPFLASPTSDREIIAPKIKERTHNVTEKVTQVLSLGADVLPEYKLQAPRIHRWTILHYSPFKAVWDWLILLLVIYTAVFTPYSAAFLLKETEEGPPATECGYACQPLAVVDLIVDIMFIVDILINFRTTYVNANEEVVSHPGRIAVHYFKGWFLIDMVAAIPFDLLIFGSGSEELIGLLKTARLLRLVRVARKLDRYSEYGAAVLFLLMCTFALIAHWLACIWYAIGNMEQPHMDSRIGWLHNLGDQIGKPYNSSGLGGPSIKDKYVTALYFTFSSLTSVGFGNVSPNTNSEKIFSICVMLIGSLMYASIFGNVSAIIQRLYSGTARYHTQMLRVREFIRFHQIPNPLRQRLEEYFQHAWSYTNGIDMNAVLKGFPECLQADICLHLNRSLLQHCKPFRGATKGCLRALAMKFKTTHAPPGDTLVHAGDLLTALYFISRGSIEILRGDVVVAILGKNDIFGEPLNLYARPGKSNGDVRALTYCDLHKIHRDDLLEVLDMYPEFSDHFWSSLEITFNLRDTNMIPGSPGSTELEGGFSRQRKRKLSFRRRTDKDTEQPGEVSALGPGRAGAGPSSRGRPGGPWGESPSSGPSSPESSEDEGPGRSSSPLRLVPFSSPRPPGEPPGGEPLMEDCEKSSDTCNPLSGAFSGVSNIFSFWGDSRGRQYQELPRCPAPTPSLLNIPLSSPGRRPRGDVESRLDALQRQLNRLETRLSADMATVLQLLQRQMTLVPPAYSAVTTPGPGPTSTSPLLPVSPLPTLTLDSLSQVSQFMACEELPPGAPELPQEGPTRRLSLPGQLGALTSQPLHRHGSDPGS

Row | SMILES | hERG Manual Patch Clamp Single dose PIN (10 μM) (hERG channel) [%] | IC50 (hERG channel) [µM] | EC50 (THP-1-Lucia NFκB cells; IL-1β 3 ng/mL, read-out: IL-1β driven NFκB-reporter activity, average pEC50 (converted)) [µM] | EC50 (THP-1-Lucia NFκB cells; LPS 2.5 ng/mL, read-out: LPS driven NFκB-reporter activity, average pEC50 (converted)) [µM] | TNFα mediated NFκB-reporter activity (THP-1-Lucia NFκB cells; TNFα 10 ng/mL)
1 | CNC(=O)c1cc2nc(CCC(C)(C)O)cn2cc1NC(=O)c1cccc(C(F)(F)F)n1 [Compound 2, 2-(3-hydroxy-3-methyl-butyl)-N-methyl-6-[[6-(trifluoromethyl)pyridine-2-carbonyl]amino]imidazo[1,2-a]pyridine-7-carboxamide] | −44.7 | 19.2 | – | – | –
2 | COc1cc2nc(CCC(C)(C)O)cn2cc1NC(=O)c1cccn(C2CC2)c1=O [Compound 5, 1-cyclopropyl-N-[2-(3-hydroxy-3-methyl-butyl)-7-methoxy-imidazo[1,2-a]pyridin-6-yl]-2-oxo-pyridine-3-carboxamide] | −25 | – | – | – | –
3 | COc1cc2nc(CCC(C)(C)O)cn2cc1NC(=O)c1cccn(C(F)F)c1=O [Compound 12, 1-(difluoromethyl)-N-[2-(3-hydroxy-3-methyl-butyl)-7-methoxy-imidazo[1,2-a]pyridin-6-yl]-2-oxo-pyridine-3-carboxamide] | −76.3 | 3.05 | – | – | –
4 | CC(C)(O)CCc1cn2cc(NC(=O)c3cccc(C(F)(F)F)n3)c(C(N)=O)cc2n1 [Compound 31, 2-(3-hydroxy-3-methyl-butyl)-6-[[6-(trifluoromethyl)pyridine-2-carbonyl]amino]imidazo[1,2-a]pyridine-7-carboxamide] | −46.7 | 16.3 | – | – | –
5 | CCOc1c(NC(=O)c2cccn(C3CC3)c2=O)cn2cc(CCC(C)(C)O)nc2c1F [Compound 37, 1-cyclopropyl-N-[7-ethoxy-8-fluoro-2-(3-hydroxy-3-methyl-butyl)imidazo[1,2-a]pyridin-6-yl]-2-oxo-pyridine-3-carboxamide] | −56.3 | 6.99 | – | – | –
6 | CCOc1c(NC(=O)c2cccn(C)c2=O)cn2cc(CCC(C)(C)O)nc2c1F [Compound 38, N-[7-ethoxy-8-fluoro-2-(3-hydroxy-3-methyl-butyl)imidazo[1,2-a]pyridin-6-yl]-1-methyl-2-oxo-pyridine-3-carboxamide] | −30.0 | – | – | – | –
7 | CCOc1c(NC(=O)c2cccn(C3CC3)c2=O)cn2cc(CCS(C)(=O)=O)nc2c1F [Compound 39, 1-cyclopropyl-N-[7-ethoxy-8-fluoro-2-(2-methylsulfonylethyl)imidazo[1,2-a]pyridin-6-yl]-2-oxo-pyridine-3-carboxamide] | −39.7 | > 10 | 0.0631 | 0.316 | no activity was observed
8 | COc1c(NC(=O)c2cccn(C3CC3)c2=O)cn2cc(CCC(C)(C)O)nc2c1F [Compound 42, 1-cyclopropyl-N-[8-fluoro-2-(3-hydroxy-3-methyl-butyl)-7-methoxy-imidazo[1,2-a]pyridin-6-yl]-2-oxo-pyridine-3-carboxamide] | −12 | > 92.3 | – | – | –
9 | CC(C)(O)CCc1cn2cc(NC(=O)c3cccc(C(F)(F)F)n3)c(C(=O)NCC(F)F)cc2n1 [Compound 48, N-(2,2-difluoroethyl)-2-(3-hydroxy-3-methylbutyl)-6-(6-(trifluoromethyl)picolinamido)imidazo[1,2-a]pyridine-7-carboxamide] | −20.5 | – | – | – | –
10 | CCNC(=O)c1cc2nc(CCC(C)(C)O)cn2cc1NC(=O)c1cccc(C(F)(F)F)n1 [Compound 49, N-ethyl-2-(3-hydroxy-3-methylbutyl)-6-(6-(trifluoromethyl)picolinamido)imidazo[1,2-a]pyridine-7-carboxamide] | −17 | – | – | – | –
